Reference: PubChem BioAssay (NCI)
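Interpolation was linear, between the two tested concentrations surrounding the appropriate level; five concentrations were tested over 48 hours in 96-well plates. Here, GI50 denotes the concentration required for 50% inhibition of growth. TGI denotes the concentration required for complete inhibition of growth.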 Peptide text beside a SMILES is read from it. * marks the point of attachment. X34 = O=C(c1ccc(-c2ccc(Cl)cc2Cl)o1)*

Experiments:
Experiment in all cases: NCI tumour cell line growth inhibition, 48 h
SN12C renal = tested on: SN12C renal
NCI-H460 lung = tested on: NCI-H460 lung
UACC-257 melanoma = tested on: UACC-257 melanoma
MDA-N = tested on: MDA-N
MCF7 breast = tested on: MCF7 breast
DLD-1 colon = tested on: DLD-1 colon
SNB-78 CNS = tested on: SNB-78 CNS
DMS 114 small cell lung = tested on: DMS 114 small cell lung
XF 498 CNS = tested on: XF 498 CNS
HOP-18 NSCLC = tested on: HOP-18 NSCLC
P388 leukemia = tested on: P388 leukemia
KM20L2 colon = tested on: KM20L2 colon
M19-MEL melanoma = tested on: M19-MEL melanoma
DMS 273 small cell lung = tested on: DMS 273 small cell lung
SR leukemia = tested on: SR leukemia
RXF-631 renal = tested on: RXF-631 renal
LXFL 529 NSCLC = tested on: LXFL 529 NSCLC

| Structure (SMILES) | TGI (SN12C renal) | TGI (NCI-H460 lung) | TGI (UACC-257 melanoma) | TGI (MDA-N) | TGI (MCF7 breast) | TGI (SR leukemia) | also measured |
| --- | --- | --- | --- | --- | --- | --- | --- |
| O=C1NC(=O)C(C(c2ccc([N+](=O)[O-])cc2)C2C(=O)NC(=O)NC2=O)C(=O)N1 | > 100 µM | > 100 µM | > 100 µM | > 100 µM | > 100 µM |  |  |
| CN(CCNC(=O)c1nn(-c2ccc(Cl)cc2Cl)c2c1Cc1ccccc1-2)CCNC(=O)c1nn(-c2ccc(Cl)cc2Cl)c2c1Cc1ccccc1-2 | 20.4 µM | 4.01 µM | 4.72 µM | 4.89 µM | 8.31 µM |  |  |
| O=c1oc2cc(O)ccc2c2oc3cc(O)ccc3c12 | > 88.7 µM | > 113 µM | 124 µM |  | 122 µM |  | TGI (DLD-1 colon): > 125 µM; TGI (SNB-78 CNS): > 86.3 µM; TGI (DMS 114 small cell lung): > 12.5 µM; TGI (XF 498 CNS): > 19.8 µM; TGI (HOP-18 NSCLC): > 125 µM; TGI (P388 leukemia): > 125 µM; TGI (KM20L2 colon): 123 µM; TGI (M19-MEL melanoma): > 125 µM; TGI (DMS 273 small cell lung): > 121 µM |
| CN(C)c1ccc(C2CC(=O)CC(c3ccc(N(C)C)cc3)C23C(=O)NC(=S)NC3=O)cc1 (stereo not given) | > 100 µM | > 100 µM | > 100 µM | > 100 µM | > 100 µM | > 100 µM |  |
| N#Cc1ccc([N+](=O)[O-])cc1NC(N)=S | > 100 µM |  |  |  |  | > 100 µM | TGI (SNB-78 CNS): > 100 µM; TGI (XF 498 CNS): > 100 µM; TGI (HOP-18 NSCLC): > 100 µM; TGI (RXF-631 renal): > 100 µM; TGI (KM20L2 colon): > 100 µM; TGI (LXFL 529 NSCLC): 32.6 µM; TGI (M19-MEL melanoma): > 100 µM; TGI (DMS 273 small cell lung): > 100 µM |
| CN1c2c(nc(N)[nH]c2=O)NCC1CCNc1ccc(C(=O)NC(CCC(=O)O)C(=O)O)cc1 (stereo not given) | 2350 µM | 1570 µM | 2360 µM | 430 µM | 2030 µM | 2530 µM | TGI (DLD-1 colon): 2350 µM; TGI (SNB-78 CNS): 2660 µM; TGI (DMS 114 small cell lung): 1770 µM; TGI (XF 498 CNS): 2150 µM; TGI (HOP-18 NSCLC): 2950 µM; TGI (P388 leukemia): 651 µM; TGI (KM20L2 colon): 2280 µM; TGI (M19-MEL melanoma): 778 µM; TGI (DMS 273 small cell lung): 1560 µM |
| CC1=C[C@H]([C@H]2C=C(C)C(C(N)=O)=CN2Cc2c(Cl)cccc2Cl)N(Cc2c(Cl)cccc2Cl)C=C1C(N)=O | > 75 µM | > 75 µM | > 75 µM | > 75 µM | > 75 µM | > 75 µM |  |
| O=C1CCCCN1 | > 1120 µM | > 1120 µM | > 1120 µM |  | > 1120 µM |  | TGI (DLD-1 colon): > 1120 µM; TGI (SNB-78 CNS): > 1120 µM; TGI (DMS 114 small cell lung): > 1120 µM; TGI (XF 498 CNS): > 112 µM; TGI (HOP-18 NSCLC): > 1120 µM; TGI (P388 leukemia): > 707 µM; TGI (KM20L2 colon): > 1120 µM; TGI (M19-MEL melanoma): > 1120 µM; TGI (DMS 273 small cell lung): > 1120 µM |
| CC1=C(SCCO)C(=O)c2ccccc2C1=O | 29.7 µM | 26.8 µM | 25.8 µM | 15.6 µM | 12.6 µM | > 100 µM |  |
| c1ccc(SCCc2ccncc2)cc1 | > 100 µM | > 100 µM | > 100 µM | > 100 µM | > 100 µM | > 100 µM |  |
| O=S(=O)(O)c1cc(S(=O)(=O)O)c2c(N=Nc3ccc(S(=O)(=O)O)c4ccccc34)c(O)ccc2c1 | > 100 µM |  | > 100 µM | > 100 µM |  |  |  |
| COc1nc2ccc(CNc3ccc(C(=O)NC(CCC(=O)O)C(=O)O)cc3)cc2nc1OC (stereo not given) | > 100 µM | > 100 µM | > 100 µM | > 100 µM | > 100 µM | > 100 µM |  |
| Nc1nc(SCCNC(=O)CCc2ccc(O)c(I)c2)nc2c1ncn2C1OC(CO)C(O)C1O (stereo not given) | > 100 µM | > 100 µM | > 100 µM |  |  | > 100 µM | TGI (DLD-1 colon): > 100 µM; TGI (SNB-78 CNS): > 100 µM; TGI (DMS 114 small cell lung): > 100 µM; TGI (XF 498 CNS): > 100 µM; TGI (KM20L2 colon): > 100 µM; TGI (LXFL 529 NSCLC): > 100 µM; TGI (M19-MEL melanoma): > 100 µM; TGI (DMS 273 small cell lung): > 100 µM |
| COc1cc2c3c(n(CCCn4cncn4)c(=O)c2cc1OC)-c1cc2c(cc1C3=O)OCO2 | > 100 µM | > 100 µM | > 100 µM |  | > 100 µM |  | GI50 (NCI-H460 lung): < 0.01 µM; GI50 (UACC-257 melanoma): > 100 µM; GI50 (SR leukemia): < 0.01 µM |
| CC(=O)OCC1=CC2OC(=O)C3=COC(OC4OC(CO)C(O)C(O)C4O)C1C32 (stereo not given) | > 100 µM |  | > 100 µM | > 100 µM | > 100 µM | > 100 µM |  |
| CC(=O)OCCCCN1C(=O)CSc2ccccc21 | > 100 µM | > 100 µM | > 100 µM | > 100 µM | > 100 µM | > 100 µM |  |
| CC(ON1[C@](C)(c2ccccc2)CC[C@@]1(C)c1ccccc1)c1ccccc1 (stereo not given in full) | > 100 µM | > 100 µM | > 100 µM |  |  |  |  |

| Structure (SMILES) | TGI (SN12C renal) | TGI (NCI-H460 lung) | TGI (UACC-257 melanoma) | TGI (MDA-N) | TGI (MCF7 breast) | TGI (SR leukemia) | also measured |
| --- | --- | --- | --- | --- | --- | --- | --- |
| CCOc1ccccc1Nc1ccc(N)cc1S(=O)(=O)O | > 100 µM | > 100 µM | > 100 µM | > 100 µM |  | > 100 µM |  |
| O=Cc1ccccc1CCn1c(=O)c2cc3c(=O)n(CCc4ccccc4C=O)c(=O)c3cc2c1=O | > 100 µM | > 100 µM | > 100 µM |  |  |  | TGI (DLD-1 colon): > 100 µM; TGI (SNB-78 CNS): > 100 µM; TGI (DMS 114 small cell lung): > 100 µM; TGI (LXFL 529 NSCLC): > 100 µM; TGI (DMS 273 small cell lung): > 100 µM |
| COC(=O)C(CC(C)C)NC(=O)C(Cc1ccccc1)NC(=O)C1CCCN1C(=O)C(CO)NC(=O)c1ccc(-c2ccc(Cl)cc2Cl)o1 (stereo not given) (X34-SPFL-OMe; configuration not given here) | 89.9 µM | 38.9 µM | 57.8 µM | > 100 µM | > 100 µM |  |  |
| CCOc1cc(C2SCC(=O)N2c2ccc3c(c2)Oc2c(Cl)c4c(c(Cl)c2=N3)Oc2cc(N3C(=O)CSC3c3ccc(O)c(OCC)c3)ccc2N=4)ccc1O (stereo not given) |  | > 100 µM | > 100 µM | > 100 µM | > 100 µM | > 100 µM |  |
| COc1ccc(C(=O)CCN(C)C)c2ccccc12 | 49.1 µM | > 100 µM | > 58.7 µM | 50.5 µM | 33.2 µM |  |  |
| Cn1c2ccccc2c2c3c(c4c5ccccc5n(C5OC(CO)C(O)C(O)C5O)c4c21)C(=O)OC3=O (stereo not given) | > 100 µM | > 100 µM | > 100 µM | > 100 µM | > 100 µM | > 100 µM |  |
| CC[C@@H]1CSC(/C=C/C2OC3OC(C)(C)OC3C3OC(C)(C)OC23)=N1 (stereo not given in full) | 23.9 µM | 61.2 µM | 26.4 µM | 21.3 µM | 16.8 µM | 37.4 µM |  |
| COc1cc(NC(C)=O)ccc1C(=O)N/N=C/c1ccco1 | > 100 µM |  |  | > 100 µM | > 100 µM | > 100 µM |  |
| OCC(O)COCn1cc(Cn2ncc3c(NCc4ccccc4)ncnc32)nn1 (stereo not given) | > 100 µM |  | > 100 µM | > 100 µM | > 100 µM | > 100 µM |  |
| CC(C)CNCCc1ccccn1 | > 100 µM | > 100 µM | > 100 µM | > 100 µM | > 100 µM |  |  |
| Nc1ncnc2c1ncn2[C@@H]1O[C@H](COP(=O)(O)OP(=O)(O)OC[C@H]2O[C@@H](OCCCO)[C@H](O)[C@@H]2O)[C@@H](O)[C@H]1O | > 100 µM | > 100 µM | > 100 µM | > 100 µM | > 100 µM | > 100 µM |  |
| CC1(O)C2(c3ccccc3)CCC[N+]1(C)CC2 (stereo not given) | > 100 µM | > 100 µM | > 100 µM | > 100 µM | > 100 µM |  |  |
| CC(C)C1=CC2=CC[C@@H]3[C@](C)(CCC[C@@]3(C)C(=O)O)[C@H]2CC1 | > 100 µM | > 100 µM | > 100 µM |  |  | > 100 µM | TGI (DLD-1 colon): > 100 µM; TGI (SNB-78 CNS): > 96.2 µM; TGI (DMS 114 small cell lung): > 100 µM; TGI (XF 498 CNS): > 100 µM; TGI (HOP-18 NSCLC): > 100 µM; TGI (RXF-631 renal): > 100 µM; TGI (KM20L2 colon): > 100 µM; TGI (LXFL 529 NSCLC): > 100 µM; TGI (M19-MEL melanoma): > 100 µM; TGI (DMS 273 small cell lung): > 100 µM |
| COc1ccc(C(=O)c2nc3ccccc3nc2N2CCN(c3ccccc3)CC2)cc1OC |  | > 100 µM | > 100 µM | > 100 µM | > 100 µM | > 100 µM |  |
| C1=CC=C2NCCc3cccc(c3)CCNC3=CC=CC=CC3=NCCCCCCN=C2C=C1 | > 100 µM | 25.3 µM | 41.8 µM |  |  | 82.4 µM | TGI (DLD-1 colon): > 100 µM; TGI (SNB-78 CNS): > 100 µM; TGI (DMS 114 small cell lung): 26.1 µM; TGI (RXF-631 renal): 28 µM; TGI (KM20L2 colon): 24.8 µM; TGI (LXFL 529 NSCLC): 23.6 µM; TGI (M19-MEL melanoma): 30.3 µM; TGI (DMS 273 small cell lung): 21.9 µM |
| O=C1NC(=NCc2ccc(F)cc2)N/C1=C\c1ccccc1Cl | 29.6 µM | > 100 µM | > 100 µM | 40.3 µM | 54.8 µM | > 100 µM |  |
| CCCCC(=O)c1c(O)ccc2c(C)cc(=O)oc12 | > 100 µM | > 100 µM | > 100 µM | > 100 µM | > 100 µM | > 100 µM |  |
